In patent US4578468A, “Antibiotic LL-D42067β” (American Cyanamid Company, priority 1984, dated 1986):
≈ marks a conversion by molar mass, not a printed value.

Columns and labels:
[1] = system: gram-positive bacteria; assay: in vitro antimicrobial spectrum, summary; format: cell-based; settings: summary of Table VI
Protocol: (§1) The in vitro antimicrobial spectrum of LL-D42067β was determined by the agar plate dilution method with Mueller-Hinton agar and an inoculum of each test organism of approximately 10^4 colony forming units delivered by the Steers replicating device. The minimal inhibitory concentration (MIC) in mcg/ml was defined as the lowest concentration of LL-D42067β that inhibited visible growth after 18 hours incubation at 35° C.

[2] = system: yeasts; assay: in vitro antimicrobial spectrum, summary; format: cell-based; settings: summary of Table VI
Protocol: as §1

[3] = poultry; subject of a copending application; cited from earlier work
[4] = system: Streptococcus mutans; assay: in vitro antimicrobial spectrum, agar plate dilution (MIC); format: cell-based; settings: 35° C., Mueller-Hinton agar
Protocol: as §1

[5] = system: Acinetobacter calcoaceticus; assay: as above; format: cell-based; settings: strain STFD 79-17, 18 hours, 35° C., Mueller-Hinton agar
Protocol: as §1

[6] = system: Staphylococcus epidermidis; assay: as above; format: cell-based; settings: ATCC12228, strain ATCC 12228, 18 hours, 35° C., Mueller-Hinton agar
Protocol: as §1

[7] = system: Saccharomyces cerevisiae; assay: as above; format: cell-based; settings: strain Y 15, 18 hours, 35° C., Mueller-Hinton agar
Protocol: as §1

[8] = system: Mycobacterium smegmatis; assay: as above; format: cell-based; settings: Mycolicibacterium smegmatis, ATCC607; strain ATCC 607; 18 hours, 35° C., Mueller-Hinton agar
Protocol: as §1

[9] = system: Escherichia coli; assay: as above; format: cell-based; settings: 35° C., Mueller-Hinton agar
Protocol: as §1

[10] = system: Staphylococcus aureus; assay: as above; format: cell-based; settings: Mueller-Hinton agar
Protocol: as §1

[11] = system: Candida albicans; assay: as above; format: cell-based; settings: strain CA 300, 18 hours, 35° C., Mueller-Hinton agar
Protocol: as §1

COc1c2c(c(O)c3c(=O)c4c(oc13)[C@@H](O)CC[C@@H]4O)-c1c3c(c4cc(C)[nH]c(=O)c4c1O)OCO[C@H]3C2 (relative stereo) [LL-D42067β]
antibacterial activity (in words) [1]: active
activity against yeasts (in words) [2]: moderately active
anticoccidial effect (in words) [3]: effective
MIC ([4]; ATCC27352, strain ATCC 27352-1, 18 hours): 0.25 µg/mL (≈ 0.479 µM)
MIC ([4]; strain BHI (b), 18 hours): 0.25 µg/mL (≈ 0.479 µM)
MIC [5]: 512 µg/mL (≈ 982 µM)
MIC [6]: 0.25 µg/mL (≈ 0.479 µM)
MIC [7]: 512 µg/mL (≈ 982 µM)
MIC [8]: 512 µg/mL (≈ 982 µM)
MIC ([9]; ATCC25922, strain ATCC 25922, 18 hours): 512 µg/mL (≈ 982 µM)
MIC ([9]; strain No. 311, 18 hours): 512 µg/mL (≈ 982 µM)
MIC ([10]; 18 h, strain LL No. 45, 35° C.): 0.12 µg/mL (≈ 0.23 µM)
MIC ([10]; ATCC25923, 18 h, strain ATCC 25923, 35° C.): 0.25 µg/mL (≈ 0.479 µM)
MIC [11]: 512 µg/mL (≈ 982 µM)
